Measurements as given in patent publication US8163724B2, “Glucocorticosteroids, processes for their preparation, pharmaceutical compositions containing them and their use in therapy” (AstraZeneca AB, priority 2007, dated 2012).

Biological target: T1, recombinant human GR (Homo sapiens, UniProt P04150)
T1 construct: purchased Panvera/Invitrogen P2812 (kit P2893)
T1 sequence (P04150 1-777): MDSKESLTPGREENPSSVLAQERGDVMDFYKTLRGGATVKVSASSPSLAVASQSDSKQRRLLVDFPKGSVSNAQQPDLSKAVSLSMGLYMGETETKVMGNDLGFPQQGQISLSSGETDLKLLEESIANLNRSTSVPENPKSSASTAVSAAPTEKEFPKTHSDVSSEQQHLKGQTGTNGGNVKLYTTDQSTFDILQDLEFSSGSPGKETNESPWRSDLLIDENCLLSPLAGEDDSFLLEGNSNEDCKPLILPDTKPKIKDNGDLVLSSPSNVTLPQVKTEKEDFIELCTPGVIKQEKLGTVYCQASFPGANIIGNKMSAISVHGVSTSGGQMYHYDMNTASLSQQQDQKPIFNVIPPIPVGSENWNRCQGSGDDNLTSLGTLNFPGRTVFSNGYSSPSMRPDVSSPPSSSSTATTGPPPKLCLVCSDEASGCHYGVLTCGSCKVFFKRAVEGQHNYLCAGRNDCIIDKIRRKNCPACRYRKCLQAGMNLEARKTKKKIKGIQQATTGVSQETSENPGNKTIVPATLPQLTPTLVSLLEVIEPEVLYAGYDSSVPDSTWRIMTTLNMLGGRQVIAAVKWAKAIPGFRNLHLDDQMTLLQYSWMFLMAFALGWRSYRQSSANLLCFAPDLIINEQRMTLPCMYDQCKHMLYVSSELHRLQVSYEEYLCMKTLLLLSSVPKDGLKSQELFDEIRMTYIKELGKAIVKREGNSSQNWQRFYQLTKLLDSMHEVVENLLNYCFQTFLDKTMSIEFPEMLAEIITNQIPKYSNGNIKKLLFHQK
Test: Human Glucocorticoid Receptor (GR) Assay (fluorescence polarization, Panvera/Invitrogen kit)
Assay type: binding
Details: fluorescence polarization; GS Red tracer; 2 hours at room temperature; 100% control 10 μM Dexamethasone; read-out: Inhibition of GR binding, IC50
Method in brief: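 Fluorescence polarization competition with recombinant GR and GS Red fluorescent ligand plus stabilizing peptide and DTT in potassium phosphate/sodium molybdate/EDTA buffer with DMSO. Incubated 2 hours at room temperature in the dark; 0% control DMSO, 100% control 10 μM dexamethasone.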

Row | SMILES | IC50 [nM]
1 | CC(=O)OCC(=O)O[C@]1(C(=O)SCC#N)CC[C@H]2[C@@H]3CCC4=Cc5c(cnn5-c5ccc(F)cc5)C[C@]4(C)[C@H]3[C@@H](O)C[C@@]21C [Example 29, (1R,3aS,3bS,10aR,10bS,11S,12aS)-1-{[(Cyanomethyl)thio]carbonyl}-7-(4-fluoro-phenyl)-11-hydroxy-10a,12a-dimethyl-1,2,3,3a,3b,4,5,7,10,10a,10b,11,12,12a-tetradecahydrocyclopenta[5,6]naphtho[1,2-f]indazol-1-yl (acetyloxy)acetate] | 5.7
2 | C[C@]12Cc3cnn(-c4ccnnc4)c3C=C1CC[C@@H]1[C@@H]2[C@@H](O)C[C@@]2(C)[C@H]1CC[C@]2(OC(=O)C1CC1)C(=O)OCC#N [Example 184, Cyanomethyl(1R,3aS,3bS,10aR,10bS,11S,12aS)-1-[(cyclopropylcarbonyl)oxy]-11-hydroxy-10a,12a-dimethyl-7-pyridazin-4-yl-1,2,3,3a,3b,4,5,7,10,10a,10b,11,12,12a-tetradecahydrocyclopenta[5,6]naphtho[1,2-f]indazole-1-carboxylate] | 1.7
3 | COCc1cc(-n2ncc3c2C=C2CC[C@@H]4[C@H]([C@@H](O)C[C@@]5(C)[C@H]4CC[C@]5(OC(=O)c4ccco4)C(=O)SCC#N)[C@@]2(C)C3)ccc1F [Example 73, (1R,3aS,3bS,10aR,10bS,11S,12aS)-1-{[(Cyanomethyl)thio]carbonyl}-7-[4-fluoro-3-(methoxymethyl)phenyl]-11-hydroxy-10a,12a-dimethyl-1,2,3,3a,3b,4,5,7,10,10a,10b,11,12,12a-tetradecahydrocyclopenta[5,6]naphtho[1,2-f]indazol-1-yl furan-2-carboxylate] | 6.4
4 | CCC(=O)O[C@]1(C(=O)SCC#N)CC[C@H]2[C@@H]3CCC4=Cc5c(cnn5-c5ccc(F)c(C(=O)SCC#N)c5)C[C@]4(C)[C@H]3[C@@H](O)C[C@@]21C [Example 174, (1R,3aS,3bS,10aR,10bS,11S,12aS)-1-{[(Cyanomethyl)sulfanyl]carbonyl}-7-(3-{[(cyanomethyl)sulfanyl]carbonyl}-4-fluorophenyl)-11-hydroxy-10a,12a-dimethyl-1,2,3,3a,3b,4,5,7,10,10a,10,12,12a-tetradecahydrocyclopenta[5,6]naphtho[1,2-f]indazol-1-yl propanoate] | 34
5 | CCOC(=O)O[C@]1(C(=O)SCC#N)CC[C@H]2[C@@H]3CCC4=Cc5c(cnn5-c5ccc(F)cc5)C[C@]4(C)[C@H]3[C@@H](O)C[C@@]21C [Example 67, S-(Cyanomethyl)(1R,3aS,3bS,10aR,10bS,11S,12aS)-1-[(ethoxycarbonyl)oxy]-7-(4-fluorophenyl)-11-hydroxy-10a,12a-dimethyl-1,2,3,3a,3b,4,5,7,10,10a,10b,11,12,12a-tetradecahydrocyclopenta[5,6]naphtho[1,2-f]indazole-1-carbothioate] | 38
6 | CCC(=O)O[C@]1(C(=O)SCC(=O)N(C)C)CC[C@H]2[C@@H]3CCC4=Cc5c(cnn5-c5ccc(F)cc5)C[C@]4(C)[C@H]3[C@@H](O)C[C@@]21C [Example 22, (1R,3aS,3bS,10aR,10bS,11S,12aS)-1-({[2-(Dimethylamino)-2-oxoethyl]thio}carbonyl)-7-(4-fluorophenyl)-11-hydroxy-10a,12a-dimethyl-1,2,3,3a,3b,4,5,7,10,10a,10b,11,12,12a-tetradecahydrocyclopenta[5,6]naphtho[1,2-f]indazol-1-yl propanoate] | 3.9
7 | Cc1nnsc1C(=O)O[C@]1(C(=O)SCC#N)CC[C@H]2[C@@H]3CCC4=Cc5c(cnn5-c5ccc(F)cc5)C[C@]4(C)[C@H]3[C@@H](O)C[C@@]21C [Example 6, (1R,3aS,3bS,10aR,10bS,11S,12aS)-1-{[(Cyanomethyl)thio]carbonyl}-7-(4-fluorophenyl)-11-hydroxy-10a,12a-dimethyl-1,2,3,3a,3b,4,5,7,10,10a,10b,11,12,12a-tetradecahydrocyclopenta[5,6]naphtho[1,2-f]indazol-1-yl 4-methyl-1,2,3-thiadiazole-5-carboxylate] | 5.9
8 | CCC(=O)O[C@]1(C(=O)SCC2CC2)CC[C@H]2[C@@H]3CCC4=Cc5c(cnn5-c5ccc(F)cc5)C[C@]4(C)[C@H]3[C@@H](O)C[C@@]21C [Example 25, (1R,3aS,3bS,10aR,10bS,11S,12aS)-1-{[(Cyclopropylmethyl)thio]carbonyl}-7-(4-fluorophenyl)-11-hydroxy-10a,12a-dimethyl-1,2,3,3a,3b,4,5,7,10,10a,10b,11,12,12a-tetradecahydrocyclopenta[5,6]naphtho[1,2-f]indazol-1-yl propanoate] | 10
9 | Cc1ccoc1C(=O)O[C@]1(C(=O)SCCO)CC[C@H]2[C@@H]3CCC4=Cc5c(cnn5-c5ccc(F)cc5)C[C@]4(C)[C@H]3[C@@H](O)C[C@@]21C [Example 58, (1R,3aS,3bS,10aR,10bS,11S,12aS)-7-(4-Fluorophenyl)-11-hydroxy-1-{[(2-hydroxy-ethyl)thio]carbonyl}-10a,12a-dimethyl-1,2,3,3a,3b,4,5,7,10,10a,10b,11,12,12a-tetradecahydrocyclopenta[5,6]naphtho[1,2-f]indazol-1-yl 3-methylfuran-2-carboxylate] | 5.5
10 | CCSCC(=O)[C@@]1(OC(C)=O)CC[C@H]2[C@@H]3CCC4=Cc5c(cnn5-c5ccc(F)cc5)C[C@]4(C)[C@H]3[C@@H](O)C[C@@]21C [Example 131, (1R,3aS,3bS,10aR,10bS,11S,12aS)-1-[(Ethylsulfanyl)acetyl]-7-(4-fluorophenyl)-11-hydroxy-10a,12a-dimethyl-1,2,3,3a,3b,4,5,7,10,10a,10b,11,12,12a-tetradecahydrocyclopenta[5,6]naphtho[1,2-f]indazol-1-yl acetate] | 4.1
11 | CC(C)CC(=O)O[C@]1(C(=O)SCC#N)CC[C@H]2[C@@H]3CCC4=Cc5c(cnn5-c5ccc(F)cc5)C[C@]4(C)[C@H]3[C@@H](O)C[C@@]21C [Example 112, (1R,3aS,3bS,10aR,10bS,11S,12aS)-1-{[(Cyanomethyl)sulfanyl]carbonyl}-7-(4-fluorophenyl)-11-hydroxy-10a,12a-dimethyl-1,2,3,3a,3b,4,5,7,10,10a,10b,11,12,12a-tetradecahydrocyclopenta[5,6]naphtho[1,2-f]indazol-1-yl 3-methylbutanoate] | 18
12 | C[C@]12Cc3cnn(-c4ccc(F)cc4)c3C=C1CC[C@@H]1[C@@H]2[C@@H](O)C[C@@]2(C)[C@H]1CC[C@]2(OC(=O)c1ccco1)C(=O)SCC(O)CO (stereo partly drawn) [Example 84, (1R,3aS,3bS,10aR,10bS,11S,12aS)-1-{[(2,3-Dihydroxypropyl)sulfanyl]carbonyl}-7-(4-fluorophenyl)-11-hydroxy-10a,12a-dimethyl-1,2,3,3a,3b,4,5,7,10,10a,10b,11,12,12a-tetradecahydrocyclopenta[5,6]naphtho[1,2-f]indazol-1-yl furan-2-carboxylate] | 5
13 | C[C@]12Cc3cnn(-c4ccccn4)c3C=C1CC[C@@H]1[C@@H]2[C@@H](O)C[C@@]2(C)[C@H]1CC[C@]2(OC(=O)C1CC1)C(=O)OCC#N [Example 143, Cyanomethyl(1R,3aS,3bS,10aR,10bS,11S,12aS)-1-[(cyclopropylcarbonyl)oxy]-11-hydroxy-10a,12a-dimethyl-7-pyridin-2-yl-1,2,3,3a,3b,4,5,7,10,11a,10b,11,12,12a-tetradecahydrocyclopenta[5,6]naphtho[1,2-f]indazole-1-carboxylate] | 1.5
14 | C[C@]12Cc3cnn(-c4ccc(F)cc4)c3C=C1CC[C@@H]1[C@@H]2[C@@H](O)C[C@@]2(C)[C@H]1CC[C@]2(OC(=O)c1ccoc1)C(=O)SCCO [Example 52, (1R,3aS,3bS,10aR,10bS,11S,12aS)-7-(4-Fluorophenyl)-11-hydroxy-1-{[(2-hydroxy-ethyl)thio]carbonyl}-10a,12a-dimethyl-1,2,3,3a,3b,4,5,7,10,10a,10b,11,12,12a-tetradecahydrocyclopenta[5,6]naphtho[1,2-f]indazol-1-yl furan-3-carboxylate] | 6.4
15 | C[C@]12Cc3cnn(-c4ccc(F)nc4)c3C=C1CC[C@@H]1[C@@H]2[C@@H](O)C[C@@]2(C)[C@H]1CC[C@]2(OC(=O)c1cocn1)C(=O)SCCO [Example 162, (1R,3aS,3bS,10aR,10bS,11S,12aS)-7-(6-Fluoropyridin-3-yl)-11-hydroxy-1-{[(2-hydroxyethyl)sulfanyl]carbonyl}-10a,12a-dimethyl-1,2,3,3a,3b,4,5,7,10,10a,10b,11,12,12a-tetradecahydrocyclopenta[5,6]naphtho[1,2-f]indazol-1-yl 1,3-oxazole-4-carboxylate] | 1.8
